The values that follow are results of earlier work, collected in PMC2096531 (Purinergic Signalling, 2005).

In the series the target is human A2B receptors. The conditions noted are these: read-out: EC50 A2B, agonist.

Usually EC50 stands for the concentration that produces a half-maximal response. With `CCNC(=O)[C@H]1O[C@@H](n2cnc3c(N)nc(C#CC(O)c4ccccc4)nc32)[C@H](O)[C@@H]1O` (stereo partly drawn) [(R,S)-PHPNECA, (R,S)-2-phenyhydroxypropynyl-N-ethylcarboxamidoadenosine], the EC50 is 1.1 µM.
